Experimental data: patent publication US12551451B2, “Compositions and methods for delivering molecules” (SunVax mRNA Therapeutics Inc., priority 2023, dated 2026)

Experiment: LNP Characteristics (size, PDI, encapsulation efficiency) of LNPs formulated with novel ionizable lipids
Assay type: physicochemical
Settings: LNP formulated with the ionizable lipid, DOPE, Cholesterol, DMG-PEG2000
Protocol: LNPs formulated using the novel ionizable lipids of the disclosure or control ionizable lipids MC3 and SM-102 were synthesized by mixing the lipid components of the LNP in ethanol at a predetermined molar ratio (ionizable lipid/DOPE/Cholesterol/DMG-PEG2000=30/15/50/1.5) to prepare an organic phase. Sa-mRNA encoding firefly luciferase (LUC) or green fluorescent protein (GFP) was diluted in 50 mM citrate buffer (pH 4.5, Fisher) to prepare an aqueous phase. The sa-mRNA was stored at −80° C. and was thawed on ice prior to use. The ethanol and aqueous phases were mixed at a 1:3 ratio by pipette with the N/P=4.2/1. The resultant LNPs were purified by ultrafiltration (100,000 cut-off, MilliporeSigma™ Amicon™ Ultra-15 Centrifugal Filter Units) at 4° C. prior to transfection into a cell, such as a T-cell.
LNPs formulated using novel ionizable lipids of the disclosure were synthesized using the procedure described in Example 2 and characterized. Table 4 below show the properties of each LNP formulated using a novel ionizable lipid of the disclosure.

SMILES | Avg. Encapsulation Efficiency (EE) % | Avg. PDI | Avg. Size
CCCCCCCCCCCCCC(=O)N(CC(CCCCCCCC)CCCCCCCCCC)C(C(=O)NC1CCCCC1)C1CCN(CC)CC1 (stereo not drawn) [Lipid P28D10] | 95.5% | 0.10 | 188.0 nm
CCCCCCCCCCC(=O)N(CC(CCCCCCCC)CCCCCCCCCC)C(CC1CCN(C)CC1)C(=O)NC1CCCCCC1 (stereo not drawn) [Lipid P40B10, N-(1-(cycloheptylamino)-3-(1-methylpiperidin-4-yl)-1-oxopropan-2-yl)-N-(2-octyldodecyl)undecanamide] | 95.8% | 0.14 | 189.9 nm
CCCCCCCCCCC(CCCCCCCC)CN(C(=O)CCC(C)C1CCC2C3CC(O)C4CC(O)CCC4(C)C3CCC12C)C(CC1CCN(C)CC1)C(=O)NC12CC3CC(CC(C3)C1)C2 (stereo not drawn) [Lipid P161F10, N-(1-(((1s,3s)-adamantan-1-yl)amino)-3-(1-methylpiperidin-4-yl)-1-oxopropan-2-yl)-4-(3,6-dihydroxy-10,13-dimethylhexadecahydro-1H-cyclopenta[a]phenanthren-17-yl)-N-(2-octyldodecyl)pentanamide] | 87.9% | 0.19 | 225 nm
CCCCCCCCCCCCCC(=O)N(C(CCCCCCC)CCCCCCC)C(C(=O)NC1CCCCCC1)C1CCN(CC)CC1 (stereo not drawn) [Lipid P38D1, N-(2-(cycloheptylamino)-1-(1-ethylpiperidin-4-yl)-2-oxoethyl)-N-(pentadecan-8-yl)tetradecanamide] | 97.4% | 0.12 | 179.1 nm
CCCCCCCCCCCCCCCC(=O)N(C(CCCCCCC)CCCCCCC)C(C(=O)NC1CCCCC1)C1CCN(CC)CC1 (stereo not drawn) [Lipid P30A1, N-(2-(cyclohexylamino)-1-(1-ethylpiperidin-4-yl)-2-oxoethyl)-N-(pentadecan-8-yl)palmitamide] | 97.8% | 0.11 | 176.6 nm
CCCCCCCCCCCCCCCCC(=O)N(C(CCCCCCC)CCCCCCC)C(CC1CCN(C)CC1)C(=O)NC1CCCCC1 (stereo not drawn) [Lipid P30B7, N-(1-(cyclohexylamino)-3-(1-methylpiperidin-4-yl)-1-oxopropan-2-yl)-N-(pentadecan-8-yl)heptadecanamide] | 91.0% | 0.10 | 151.6 nm
CCCCCCCCCN(CCCCCCCCC)CCC(=O)N1CN(C(=O)CCN(CCCCCCCCC)CCCCCCCCC)CN(C(=O)CCN(CCCCCCCCC)CCCCCCCCC)C1 [Lipid E2, 1,1′,1″-(1,3,5-triazinane-1,3,5-triyl)tris(3-(dinonylamino)propan-1-one)] | 95.1% | 0.1 | 200 nm
CCCCCCCCCCCCCCCC(=O)N(C(CCCCCCCC)CCCCCCCC)C(C(=O)NC1=CCCCC1)C1CCN(CC)CC1 (stereo not drawn) [Lipid P6A2, N-(2-(cyclohex-1-en-1-ylamino)-1-(1-ethylpiperidin-4-yl)-2-oxoethyl)-N-(heptadecan-9-yl)palmitamide] | 90.4% | 0.12 | 190.7 nm
CCCCCCCCCCCCCC(=O)N(C(CCCCCCC)CCCCCCC)C(CC1CCN(C)CC1)C(=O)NC1CCCCCC1 (stereo not drawn) [Lipid P38D7, N-(1-(cycloheptylamino)-3-(1-methylpiperidin-4-yl)-1-oxopropan-2-yl)-N-(pentadecan-8-yl)tetradecanamide] | 94.8% | 0.21 | 236.3 nm
CCCCCCCCCCCCCC(=O)N(C(CCCCCCCC)CCCCCCCC)C(CC1CCN(C)CC1)C(=O)NC1CCCCCC1 (stereo not drawn) [Lipid P38D8, N-(1-(cycloheptylamino)-3-(1-methylpiperidin-4-yl)-1-oxopropan-2-yl)-N-(heptadecan-9-yl)tetradecanamide] | 95.4% | 0.18 | 186.9 nm
CCCCCCCCCCCCCCCCCC(=O)N(C(CCCCCCC)CCCCCCC)C(CC1CCN(C)CC1)C(=O)NC1CCCCC1 (stereo not drawn) [Lipid P30C7, N-(1-(cyclohexylamino)-3-(1-methylpiperidin-4-yl)-1-oxopropan-2-yl)-N-(pentadecan-8-yl)stearamide] | 93.9% | 0.11 | 166.8 nm

The next lines start with the values.

Avg. Encapsulation Efficiency (EE) % | Avg. PDI | Avg. Size | SMILES
81.5% | 0.15 | 154.4 nm | CCCCCCCCCCCCCCCC(=O)N(C(CCCCCCCC)CCCCCCCC)C(C(=O)NC12CC3CC(CC(C3)C1)C2)C1CCN(CC)CC1 (stereo not drawn) [Lipid P56A2, N-(2-(((1s,3s)-adamantan-1-yl)amino)-1-(1-ethylpiperidin-4-yl)-2-oxoethyl)-N-(heptadecan-9-yl)palmitamide]
93.4% | 0.10 | 181.2 nm | CCCCCCCCCCCCC(CCCCCCCCCC)CN(C(=O)CCCCCCCCCC)C(C(=O)NC12CC3CC(CC(C3)C1)C2)C1CCN(CC)CC1 (stereo not drawn) [Lipid P54B6, N-(2-(((1s,3s)-adamantan-1-yl)amino)-1-(1-ethylpiperidin-4-yl)-2-oxoethyl)-N-(2-decyltetradecyl)undecanamide]
90.6% | 0.10 | 173.2 nm | CCCCCCCCCCCCCCCCC(=O)N(C(CCCCCCC)CCCCCCC)C(C(=O)NC12CC3CC(CC(C3)C1)C2)C1CCN(CC)CC1 (stereo not drawn) [Lipid P56B1, N-(2-(((1s,3s)-adamantan-1-yl)amino)-1-(1-ethylpiperidin-4-yl)-2-oxoethyl)-N-(pentadecan-8-yl)heptadecanamide]
62.0% | 0.14 | 169 nm | CCCCCCCCCCCCOC(=O)CCC(=O)N(C(CCCCCCCCCCC)CCCCCCCCCCC)C(C(=O)NC1CCCCCC1)C1CCN(CC)CC1 (stereo not drawn) [Lipid P153C5, dodecyl 4-((2-(cycloheptylamino)-1-(1-ethylpiperidin-4-yl)-2-oxoethyl)(tricosan-12-yl)amino)-4-oxobutanoate]
98.2% | 0.18 | 149.2 nm | CCCCCCCCCCCCCCC(=O)N(C(CCCCCCC)CCCCCCC)C(CC1CCN(C)CC1)C(=O)NC1CCCCCC1 (stereo not drawn) [Lipid P40D7, N-(1-(cycloheptylamino)-3-(1-methylpiperidin-4-yl)-1-oxopropan-2-yl)-N-(pentadecan-8-yl)pentadecanamide]
90.1% | 0.15 | 176 nm | CCCCCC/C=C\CCCCCCCC(=O)N(C(CCCCCCCC)CCCCCCCC)C(C(=O)NC1CCCCCC1)C1CCN(CC)CC1 (stereo not drawn) [Lipid P149C2, (Z)-N-(2-(cycloheptylamino)-1-(1-ethylpiperidin-4-yl)-2-oxoethyl)-N-(heptadecan-9-yl)hexadec-9-enamide]
92.0% | 0.10 | 218 nm | CCCCCCCC/C=C\CCCCCCCC(=O)N(C(CCCCCCCC)CCCCCCCC)C(C(=O)NC1CCCCCC1)C1CCN(CC)CC1 (stereo not drawn) [Lipid P149A2, N-(2-(cycloheptylamino)-1-(1-ethylpiperidin-4-yl)-2-oxoethyl)-N-(heptadecan-9-yl)oleamide]
89.1% | 0.12 | 186.3 nm | CCCCCCCCCCCCCCCC(=O)N(C(CCCCCCC)CCCCCCC)C(C(=O)NC12CC3CC(CC(C3)C1)C2)C1CCN(CC)CC1 (stereo not drawn) [Lipid P56A1, N-(2-(((1s,3s)-adamantan-1-yl)amino)-1-(1-ethylpiperidin-4-yl)-2-oxoethyl)-N-(pentadecan-8-yl)palmitamide]
98.3% | 0.16 | 175.6 nm | CCCCCCCCCCCCC(CCCCCCCCCC)CN(C(=O)CCCCCCCCC)C(C(=O)NC(C)(C)C)C1CCN(CC)CC1 (stereo not drawn) [Lipid P53A6, N-(2-(tert-butylamino)-1-(1-ethylpiperidin-4-yl)-2-oxoethyl)-N-(2-decyltetradecyl)decanamide]
98.1% | 0.26 | 186.5 nm | CCCCCCCCCCCCC(=O)N(CC(CCCCCCCCCC)CCCCCCCCCCCC)C(CC1CCN(C)CC1)C(=O)NC(C)(C)C (stereo not drawn) [Lipid P51C12, N-(1-(tert-butylamino)-3-(1-methylpiperidin-4-yl)-1-oxopropan-2-yl)-N-(2-decyltetradecyl)tridecanamide]
90.1% | 0.12 | 148 nm | CCCCCCCCCCCCOC(=O)CCC(=O)N(C(CCCCCCC)CCCCCCC)C(C(=O)NC1CCCCCC1)C1CCN(CC)CC1 (stereo not drawn) [Lipid P153C1, dodecyl 4-((2-(cycloheptylamino)-1-(1-ethylpiperidin-4-yl)-2-oxoethyl)(pentadecan-8-yl)amino)-4-oxobutanoate]
97.9% | 0.10 | 173.8 nm | CCCCCCCCCCCC(CCCCCCCCCCC)N(C(=O)CCCCCCCCC)C(C(=O)NC(C)(C)C)C1CCN(CC)CC1 (stereo not drawn) [Lipid P53A5, N-(2-(tert-butylamino)-1-(1-ethylpiperidin-4-yl)-2-oxoethyl)-N-(tricosan-12-yl)decanamide]
99.1% | 0.25 | 192.9 nm | CCCCCCCCCCCC(=O)N(CC(CCCCCCCC)CCCCCCCCCC)C(CC1CCN(C)CC1)C(=O)NC1CCCCCC1 (stereo not drawn) [Lipid P40C10, N-(1-(cycloheptylamino)-3-(1-methylpiperidin-4-yl)-1-oxopropan-2-yl)-N-(2-octyldodecyl)dodecanamide]
